Consider 11 molecules from ChEMBL document CHEMBL3244408, “Synthesis and analgetic activity of some benzomorphan analogues” (1978).

In general, ED50 refers to the midpoint of the dose-response relation. Higher therefore signals a need for a large dose.

The test system of the test is Mus musculus. The test is described as follows: Analgetic activity in sc dosed albino DD mouse by tail pressure stimuli method. The test is classed as functional.
The molecule `Br.CN1CC2CC1Cc1ccc(O)cc12` (stereo unspecified) gave an ED50 of 43 mg/kg.
The value for `CC(O)C(=O)O.CN1CC2Cc3ccc(O)cc3C1C2` (stereo unspecified) was 29.1 mg/kg; that for `CN1CCC2Cc3ccc(O)cc3C1C2` (stereo unspecified) was 17.2 mg/kg.
To `CN1CCCC2Cc3ccc(O)cc3C1C2.Cl.O` (stereo unspecified) belongs 15 mg/kg; to `Br.CN1CCCC2(C)CC1Cc1ccc(O)cc12` (stereo unspecified), 4.1 mg/kg.
The value for `Br.C[C@@H]1C2Cc3ccc(O)cc3C1(C)CCN(C)C2` (stereo partly specified) was 1 mg/kg.
The molecule `Br.CN1CCC2Cc3ccc(O)cc3C(C2)C1` (stereo unspecified) had an ED50 of 38.8 mg/kg. Compared with the last molecule, the ED50 is about 39-fold higher.
To `Br.CN1CC2Cc3ccc(O)cc3C(C)(C2)C1` (stereo unspecified) belongs 8.4 mg/kg; to `CC1NCC2Cc3ccc(O)cc3C1C2` (stereo unspecified), 4.5 mg/kg.
To `COc1ccc2c3c1O[C@H]1[C@@H](O)C=C[C@H]4[C@@H](C2)N(C)CC[C@@]341.COc1ccc2c3c1O[C@H]1[C@@H](O)C=C[C@H]4[C@@H](C2)N(C)CC[C@@]341.O.O=P(O)(O)O.O=P(O)(O)O` [CODEINE PHOSPHATE] belongs 9.2 mg/kg; to `CN1CC[C@]23c4c5ccc(O)c4O[C@H]2[C@@H](O)C=C[C@H]3[C@H]1C5.Cl` [MORPHINE HYDROCHLORIDE], 1.2 mg/kg.
